We go through 15 compounds from patent US8063071B2 (GlaxoSmithKline, LLC, priority 2007, dated 2011).

For assay [1], the target named is T1, Recombinant human IKKβ (residues 1-737) (Homo sapiens, UniProt O14920).
T1 construct: Recombinant human IKKβ (residues 1-737); GST (C); made in house
T1 sequence (O14920 1-737): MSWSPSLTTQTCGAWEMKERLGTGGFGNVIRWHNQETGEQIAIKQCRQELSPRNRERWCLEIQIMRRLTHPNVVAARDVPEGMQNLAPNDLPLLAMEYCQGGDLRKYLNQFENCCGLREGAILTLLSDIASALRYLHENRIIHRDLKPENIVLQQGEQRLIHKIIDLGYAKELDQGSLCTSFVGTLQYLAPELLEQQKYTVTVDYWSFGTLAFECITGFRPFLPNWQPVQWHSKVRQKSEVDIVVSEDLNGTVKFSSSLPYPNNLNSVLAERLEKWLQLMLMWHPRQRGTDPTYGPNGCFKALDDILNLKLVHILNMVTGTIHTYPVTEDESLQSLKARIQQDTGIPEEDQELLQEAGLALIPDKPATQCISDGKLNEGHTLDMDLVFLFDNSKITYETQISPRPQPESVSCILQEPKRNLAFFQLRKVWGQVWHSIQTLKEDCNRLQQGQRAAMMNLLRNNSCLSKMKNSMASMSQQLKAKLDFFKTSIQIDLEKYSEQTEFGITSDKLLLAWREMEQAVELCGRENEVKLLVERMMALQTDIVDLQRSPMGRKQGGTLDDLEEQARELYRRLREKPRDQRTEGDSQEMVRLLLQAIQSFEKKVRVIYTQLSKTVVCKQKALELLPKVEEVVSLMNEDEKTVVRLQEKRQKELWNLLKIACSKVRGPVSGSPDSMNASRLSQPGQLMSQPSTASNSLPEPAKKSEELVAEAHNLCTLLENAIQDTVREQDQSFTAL
Put plainly: IKK2 assay (TR-FRET). In kind it is biochemical. The conditions noted are these: ATP 1 μM final, read-out: pIC50 against IKK2 (converted). The procedure, abridged: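 TR-FRET readout (665 nm over 620 nm Eu reference) of GST-IB Ser32/36 phosphorylation after 60 min detection. Reaction: 1 μM ATP, 25 nM substrate, 0.5-5 nM GST-fused IKKβ 1-737 from baculovirus, pH 7.4 HEPES buffer, 1.7% DMSO, 15 min room temperature, EDTA-terminated.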

Assay [2] relates to human monocyte stimulated cytokine production (TNF-α). Put plainly: Monocyte assay (LPS-stimulated TNF-α production). It counts as cell-based. To be noted: for IC50: 24 h, 200 ng/mL LPS, TNF-α by ELISA; for inhibition at 0.3 µM: read-out: inhibition at 300 nM in the monocyte assay. The procedure, abridged: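 TNF-α release was measured by ELISA after 24 hrs at 37 C. Cells were stimulated with 200 ng/mL E. coli LPS, with compound added 30 minutes beforehand (0.1% DMSO vehicle). Cells were Ficoll/MACS-isolated CD14+ human monocytes adhered at 1×10^6 cells/mL, and viability was checked by trypan blue.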

Counter-ions that a name gives are not always drawn. Bounds are passed on as bounds.

Turning to `CCS(=O)(=O)N1CCC(c2c[nH]c3c(C(N)=O)cc(-c4csc(CN(C)C(C)(C)C)c4)cc23)CC1` [Example 406, 5-(5-{[(1,1-dimethylethyl)(methyl)amino]methyl}-3-thienyl)-3-[1-(ethylsulfonyl)-4-piperidinyl]-1H-indole-7-carboxamide trifluoroacetate], the IC50 in assay [1] was at most 10 µM; in assay [2] it was at most 1.5 µM.

As to `CCS(=O)(=O)N1CCC(c2c[nH]c3c(C(N)=O)cc(-c4csc(CN(C)[C@@H](C)CO)c4)cc23)CC1` [Example 408, 3-[1-(ethylsulfonyl)-4-piperidinyl]-5-(5-{[[(1S)-2-hydroxy-1-methylethyl](methyl)amino]methyl}-3-thienyl)-1H-indole-7-carboxamide trifluoroacetate], the IC50 in assay [1] was at most 10 µM; in assay [2] it was at most 1.5 µM.

Regarding `CCS(=O)(=O)N1CCC(c2c[nH]c3c(C(N)=O)cc(-c4csc(CN(C)CC5CC5)c4)cc23)CC1` [Example 409, 5-(5-{[(cyclopropylmethyl)(methyl)amino]methyl}-3-thienyl)-3-[1-(ethylsulfonyl)-4-piperidinyl]-1H-indole-7-carboxamide trifluoroacetate], the IC50 was at most 10 µM in assay [1] and at most 1.5 µM in assay [2].

Take `CCC(C)(C)N(C)Cc1cc(-c2cc(C(N)=O)c3[nH]cc(C4CCN(S(=O)(=O)CC)CC4)c3c2)cs1` [Example 412, 5-{5-[(1,1-dimethylpropyl)(methyl)amino]methyl}-3-thienyl)-3-[1-(ethylsulfonyl)-4-piperidinyl]-1H-indole-7-carboxamide trifluoroacetate]: the IC50 in assay [1] is at most 10 µM; in assay [2], at most 1.5 µM.

Consider `CCS(=O)(=O)N1CCC(c2c[nH]c3c(C(N)=O)cc(-c4csc(C(C)N(C)CCOC)c4)cc23)CC1` (stereo not drawn) [Example 416, 3-[1-(ethylsulfonyl)-4-piperidinyl]-5-[5-(1-{methyl[2-(methyloxy)ethyl]amino}ethyl)-3-thienyl]-1H-indole-7-carboxamide trifluoroacetate], for which the IC50 in assay [1] was at most 10 µM; in assay [2], at most 1.5 µM.

Consider `CCCN(C)C(C)c1cc(-c2cc(C(N)=O)c3[nH]cc(C4CCN(S(=O)(=O)CC)CC4)c3c2)cs1` (stereo not drawn) [Example 417, 3-[1-(ethylsulfonyl)-4-piperidinyl]-5-(5-{1-[methyl(propyl)amino]ethyl}-3-thienyl)-1H-indole-7-carboxamide trifluoroacetate], for which the results for the IC50 in assay [1] and in assay [2] were at most 10 µM and at most 1.5 µM, respectively.

On to `CCS(=O)(=O)N1CCC(c2c[nH]c3c(C(N)=O)cc(-c4ccc5c(c4)CNC5)cc23)CC1` [Example 418, 5-(2,3-dihydro-1H-isoindol-5-yl)-3-[1-(ethylsulfonyl)-4-piperidinyl]-1H-indole-7-carboxamide], for which the IC50 in assay [1] is at most 10 µM; in assay [2] it was at most 1.5 µM.

For `CCN1Cc2ccc(-c3cc(C(N)=O)c4[nH]cc(C5CCN(S(=O)(=O)CC)CC5)c4c3)cc2C1` [Example 419, 5-(2-ethyl-2,3-dihydro-1H-isoindol-5-yl)-3-[1-(ethylsulfonyl)-4-piperidinyl]-1H-indole-7-carboxamide], the values for the IC50 in assay [1] and in assay [2] were at most 10 µM and at most 1.5 µM, respectively.

Turning to `CC(C)S(=O)(=O)N1CCC(c2c[nH]c3c(C(N)=O)cc(-c4csc(CN5CCC[C@@H]5C(N)=O)c4)cc23)CC1` [Example 429, 5-(5-{[(2R)-2-(aminocarbonyl)-1-pyrrolidinyl]methyl}-3-thienyl)-3-[1-[(1-methylethyl)sulfonyl]-4-piperidinyl]-1H-indole-7-carboxamide], the IC50 in assay [1] is at most 10 µM. The inhibition at 0.3 µM in assay [2] lay within 0 to 60%.

Regarding `CCSCCN(C)Cc1cc(-c2cc(C(N)=O)c3[nH]cc(C4CCN(S(=O)(=O)CC)CC4)c3c2)cs1` [Example 430, 3-[1-(ethylsulfonyl)-4-piperidinyl]-5-(5-{[[2-(ethylthio)ethyl](methyl)amino]methyl}-3-thienyl)-1H-indole-7-carboxamide], the IC50 in assay [1] is at most 10 µM. The inhibition at 0.3 µM in assay [2] fell in the range of 0 to 60%.

Regarding `CCS(=O)(=O)N1CCC(c2c[nH]c3c(C(N)=O)cc(-c4csc(CN(C)CCSCCO)c4)cc23)CC1` [Example 431, 3-[1-(ethylsulfonyl)-4-piperidinyl]-5-(5-{[{2-[(2-hydroxyethyl)thio]ethyl}(methyl)amino]methyl}-3-thienyl)-1H-indole-7-carboxamide], the IC50 in assay [1] was at most 10 µM. Also, the inhibition at 0.3 µM in assay [2] lay within 0 to 60%.

On to `CCS(=O)(=O)N1CCC(c2c[nH]c3c(C(N)=O)cc(-c4csc(CN(C)C(CO)CO)c4)cc23)CC1` [Example 432, 3-[1-(ethylsulfonyl)-4-piperidinyl]-5-(5-{[[2-hydroxy-1-(hydroxymethyl)ethyl](methyl)amino]methyl}-3-thienyl)-1H-indole-7-carboxamide], for which the figures for the IC50 in assay [1] and in assay [2] were at most 10 µM and at most 1.5 µM, respectively.

For `CCOC(=O)N(C)Cc1cc(-c2cc(C(N)=O)c3[nH]cc(C4CCN(S(=O)(=O)CC)CC4)c3c2)cs1` [Example 433, ethyl[(4-{7-(aminocarbonyl)-3-[1-(ethylsulfonyl)-4-piperidinyl]-1H-indol-5-yl}-2-thienyl)methyl]methylcarbamate], the IC50 in assay [1] is at most 10 µM. In addition, the inhibition at 0.3 µM in assay [2] lay within 0 to 60%.

Turning to `CCOC(=O)CN(C)Cc1cc(-c2cc(C(N)=O)c3[nH]cc(C4CCN(S(=O)(=O)CC)CC4)c3c2)cs1` [Example 434, ethyl N-[(4-[7-(aminocarbonyl)-3-[1-(ethylsulfonyl)-4-piperidinyl]-1H-indol-5-yl]-2-thienyl)methyl]-N-methylglycinate], the IC50 is at most 10 µM in assay [1] and at most 1.5 µM in assay [2].

Turning to `CCS(=O)(=O)N1CCC(c2c[nH]c3c(C(N)=O)cc(-c4csc(CN(C)C5CCS(=O)(=O)C5)c4)cc23)CC1` (stereo not drawn) [Example 436, 5-(5-{[(1,1-dioxidotetrahydro-3-thienyl)(methyl)amino]methyl}-3-thienyl)-3-[1-(ethylsulfonyl)-4-piperidinyl]-1H-indole-7-carboxamide trifluoroacetate], the IC50 in assay [1] was at most 10 µM. In addition, the inhibition at 0.3 µM in assay [2] was in the range of 0 to 60%.
